How the values were obtained:
[1] = tested on: oil field isolated anaerobic SRB consortium; experiment: Biocidal efficacy (MBC) against SRB, 40° C. for 24 hour; format: cell-based, sulfate reducing bacteria (SRB); settings: alone or in the combination, minimum tested biocide concentration for bacteria kill, 10^6 to 10^7 CFU/mL
Experimental: The synergy indexes reported in the following examples are calculated using the following equation: Synergy Index=Ca/CA+Cb/CB where Ca: Concentration of biocide A required to achieve a certain level or complete bacterial kill when used in combination; CA: Concentration of biocide A required to achieve a certain level or complete bacterial kill when used alone; Cb: Concentration of biocide B required to achieve a certain level or complete bacterial kill when used in combination; and CB: Concentration of biocide B required to achieve a certain level or complete bacterial kill when used alone. A synergy index (SI) of 1 indicates additivity, a synergy index of less than 1 indicates synergy, and a synergy index greater than 1 indicates antagonism. Various methods known to those skilled in the art can be used for evaluating biocidal efficacy. In the examples below, aliquots of the biocide-treated samples are removed at predetermined time points and the biocide concentration required to achieve a certain level or complete bacterial kill is determined by culture-based methods including serial dilution. […] After the mixtures are incubated at 40° C. for 24 hour, the biocidal efficacy is determined by minimum tested biocide concentration for bacteria kill in the aliquots (MBC). […]

[2] = tested on: oilfield SRB consortium; experiment: Biocidal efficacy against SRB under high temperature and sulfide-rich conditions; format: cell-based, sulfate reducing bacteria (SRB); settings: alone or in the combination, 80° C. anaerobic, daily challenge with SRB and 10 ppm sulfide
Experimental: The synergy indexes reported in the following examples are calculated using the following equation: Synergy Index=Ca/CA+Cb/CB where Ca: Concentration of biocide A required to achieve a certain level or complete bacterial kill when used in combination; CA: Concentration of biocide A required to achieve a certain level or complete bacterial kill when used alone; Cb: Concentration of biocide B required to achieve a certain level or complete bacterial kill when used in combination; and CB: Concentration of biocide B required to achieve a certain level or complete bacterial kill when used alone. […] In the examples below, aliquots of the biocide-treated samples are removed at predetermined time points and the biocide concentration required to achieve a certain level or complete bacterial kill is determined by culture-based methods including serial dilution. […] After incubation for 2 h the biocidal efficacy is evaluated against the field SRB consortium at 40° C. for 2 h. After incubation for 7 days the biocidal efficacy are evaluated again for 24 h. The biocidal efficacy is determined by the lowest testing biocide dosage concentration required to achieve a 3 log 10 or greater bacterial reduction, of both 2 hours and 7 days heat and SRB-sulfide exposure. Synergy Index is then calculated. […]

O=[N+]([O-])C(CO)(CO)CO [0:1, tris(hydroxymethyl)nitromethane]
MBC (active ppm) TA ([1]; concentration of TA): 36.5 active ppm
Dosage required for 3log10 bacterial reduction of both 2 h and 7 day heat and SRB-sulfide exposure (active ppm) TA ([2]; concentration of TA): 360.0 active ppm

O=[N+]([O-])C(Br)(CO)CO [1:0, 2-bromo-2-nitro-1,3-propanediol]
MBC (active ppm) BNPD ([1]; concentration of BNPD): 3.5 active ppm
Dosage required for 3log10 bacterial reduction of both 2 h and 7 day heat and SRB-sulfide exposure (active ppm) BNPD ([2]; concentration of BNPD): 180.0 active ppm

— US8993638B2, “Brominated nitroalkanol compositions and their use as biocides” (Dow Global Technologies LLC, priority 2009, dated 2015)
